Laboratory results reported in US11071731B2, “Allosteric modulators of the mu opioid receptor” (Chiromics, LLC, priority 2017, dated 2021).

Tests used:
mu opioid receptor (MOR) [1] = target: T1, mu opioid receptor (MOR) (Homo sapiens, UniProt P35372); assay: PathHunter β-arrestin recruitment assay, PAM mode with EC20 endomorphin-1; assay type: cell-based; conditions: for EC50: read-out: β-arr. EC50
In short: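 Enzyme fragment complementation read-out: β-gal ED fragment fused to receptor, EA fused to β-arrestin, recruitment restoring β-gal activity detected by chemiluminescence. EC50 and percent maximal response derived for each compound.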

mu opioid receptor (MOR) [2] = target: T1, mu opioid receptor (MOR); assay: Hit Hunter cAMP signaling assay (adenylyl cyclase inhibition), PAM mode with EC20 endomorphin-1; assay type: cell-based
[3] = maximal response for β-arrestin recruitment
[4] = cAMP EC50, adenylyl cyclase inhibition
[5] = maximal response for adenylyl cyclase inhibition
[6] = adenylyl cyclase inhibition, read-out: cAMP EC50
[7] = maximal response, β-arrestin recruitment
[8] = maximal response, adenylyl cyclase inhibition

T1 sequence (P35372 whole entry, the tested form may be a part): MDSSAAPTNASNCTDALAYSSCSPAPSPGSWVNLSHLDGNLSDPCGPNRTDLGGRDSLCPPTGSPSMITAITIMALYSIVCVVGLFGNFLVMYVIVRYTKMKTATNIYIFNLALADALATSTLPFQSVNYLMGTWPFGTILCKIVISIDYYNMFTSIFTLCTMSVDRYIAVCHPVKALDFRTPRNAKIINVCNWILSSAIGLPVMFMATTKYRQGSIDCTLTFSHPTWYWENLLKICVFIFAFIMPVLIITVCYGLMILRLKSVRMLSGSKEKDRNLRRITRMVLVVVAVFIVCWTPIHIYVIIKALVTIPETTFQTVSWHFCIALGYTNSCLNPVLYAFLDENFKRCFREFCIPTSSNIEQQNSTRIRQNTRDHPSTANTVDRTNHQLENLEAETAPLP

SMILES | β-arr Max. Resp. (mu opioid receptor (MOR) [1]; [3]) | EC50 (mu opioid receptor (MOR) [1]; β-arrestin recruitment) [nM] | EC50 (mu opioid receptor (MOR) [2]; [4]) [nM] | cAMP Max. Resp. (mu opioid receptor (MOR) [2]; [5]) | EC50 (mu opioid receptor (MOR) [2]; [6]) [nM] | β-arr Max. Resp. (mu opioid receptor (MOR) [1]; [7]) | cAMP Max. Resp. (mu opioid receptor (MOR) [2]; [8])
Fc1cnc(Cl)nc1N1CCCCC1c1cccnc1 (centres unmarked) [compound 373] | D (D represents a maximal response of < 40%) | < 700 | < 700 | D (D represents a maximal response of < 40%) |  |  | 
Fc1cnc(Cl)nc1N1CCCCC1c1ccn2nncc2c1 (centres unmarked) [compound 374] | D (D represents a maximal response of < 40%) | < 700 | < 700 | D (D represents a maximal response of < 40%) |  |  | 
Fc1cnccc1C1CCCCN1c1nc(Cl)ncc1F (centres unmarked) [compound 375] | D (D represents a maximal response of < 40%) | < 700 | < 700 | D (D represents a maximal response of < 40%) |  |  | 
Fc1cnc(Cl)nc1N1CCCCC1c1cncc(C(F)(F)F)c1 (centres unmarked) [compound 376] | D (D represents a maximal response of < 40%) | < 700 | < 700 | D (D represents a maximal response of < 40%) |  |  | 
Cc1nccc(C2CCCCN2c2nc(Cl)ncc2F)n1 (centres unmarked) [compound 377] | D (D represents a maximal response of < 40%) | < 700 | < 700 | D (D represents a maximal response of < 40%) |  |  | 
Fc1cnc(Cl)nc1N1CCCCC1c1cncnc1 (centres unmarked) [compound 378] | D (D represents a maximal response of < 40%) | < 700 | < 700 | D (D represents a maximal response of < 40%) |  |  | 
COc1cnc(C2CCCCN2c2nc(Cl)ncc2F)nc1Cl (centres unmarked) [compound 379] | D (D represents a maximal response of < 40%) | < 700 | < 700 | D (D represents a maximal response of < 40%) |  |  | 
COc1ncccc1C1CCCCN1c1nc(Cl)ncc1F (centres unmarked) [compound 380] | D (D represents a maximal response of < 40%) | < 700 | < 700 | D (D represents a maximal response of < 40%) |  |  | 
Cc1nccc(C2CCCCN2c2nc(Cl)ccc2F)n1 (centres unmarked) [compound 381] | D (D represents a maximal response of < 40%) | < 700 |  | D (D represents a maximal response of < 40%) | < 700 |  | 
Fc1ccc(Cl)nc1N1CCCCC1c1cncnc1 (centres unmarked) [compound 382] | D (D represents a maximal response of < 40%) | < 700 | < 700 | D (D represents a maximal response of < 40%) |  |  | 
Fc1ccc(Cl)nc1C1CCCCN1c1nc(Cl)ncc1F (centres unmarked) [compound 388] | D (D represents a maximal response of < 40%) | < 700 | < 700 | D (D represents a maximal response of < 40%) |  |  | 
Fc1cnc(Cl)nc1N1CCCCC1c1cccc2ncnn12 (centres unmarked) [compound 389] | D (D represents a maximal response of < 40%) | < 700 | < 700 | D (D represents a maximal response of < 40%) |  |  | 
Fc1cnc(Cl)nc1N1CCCCC1c1cc(Cl)cnc1F (centres unmarked) [compound 390] | D (D represents a maximal response of < 40%) | < 700 | < 700 | D (D represents a maximal response of < 40%) |  |  | 
Fc1cnc(Cl)nc1N1CCCCC1c1ccncn1 (centres unmarked) [compound 391] | D (D represents a maximal response of < 40%) | < 700 | < 700 | D (D represents a maximal response of < 40%) |  |  | 
Cc1ncc(Cl)c(C2CCCCN2c2nc(Cl)ncc2F)n1 (centres unmarked) [compound 392] | D (D represents a maximal response of < 40%) | < 700 | < 700 | D (D represents a maximal response of < 40%) |  |  | 
Oc1cnc2ccc(C3CCCCN3c3nc(Cl)ncc3F)cc2c1 (centres unmarked) [compound 393] | D (D represents a maximal response of < 40%) | < 700 | < 700 | D (D represents a maximal response of < 40%) |  |  | 
Fc1ccc(Cl)nc1N1CCCCC1c1cncc(Cl)n1 (centres unmarked) [compound 395] | D (D represents a maximal response of < 40%) | < 700 |  | D (D represents a maximal response of < 40%) | < 700 |  | 
Cc1nccc(N2CCCCC2c2cncc(Cl)n2)n1 (centres unmarked) [compound 396] | D (D represents a maximal response of < 40%) | < 700 | < 700 | D (D represents a maximal response of < 40%) |  |  | 
Fc1ccc(Cl)cc1C1CCCCN1c1nc(Cl)ncc1F (centres unmarked) [compound 400] | D (D represents a maximal response of < 40%) | < 700 | < 700 | D (D represents a maximal response of < 40%) |  |  | 

SMILES | β-arr Max. Resp. (mu opioid receptor (MOR) [1]; [3]) | EC50 (mu opioid receptor (MOR) [1]; β-arrestin recruitment) [nM] | EC50 (mu opioid receptor (MOR) [2]; [4]) [nM] | cAMP Max. Resp. (mu opioid receptor (MOR) [2]; [5]) | EC50 (mu opioid receptor (MOR) [2]; [6]) [nM] | β-arr Max. Resp. (mu opioid receptor (MOR) [1]; [7]) | cAMP Max. Resp. (mu opioid receptor (MOR) [2]; [8])
Oc1nccc(N2CCCCC2c2cccc(C(F)(F)F)c2)n1 (centres unmarked) [compound 401] | D (D represents a maximal response of < 40%) | < 700 | < 700 | D (D represents a maximal response of < 40%) |  |  | 
Fc1c(N2CCCCC2c2cccc(C(F)(F)F)c2)ccnc1Cl (centres unmarked) [compound 402] | D (D represents a maximal response of < 40%) | < 700 | < 700 | D (D represents a maximal response of < 40%) |  |  | 
Fc1ccc(C(F)(F)F)cc1C1CCCCN1c1ccnc(Cl)n1 (centres unmarked) [compound 403] | D (D represents a maximal response of < 40%) | < 700 | < 700 | D (D represents a maximal response of < 40%) |  |  | 
Fc1c(Cl)cccc1C1CCCCN1c1ccnc(Cl)n1 (centres unmarked) [compound 405] | D (D represents a maximal response of < 40%) | < 700 | < 700 | D (D represents a maximal response of < 40%) |  |  | 
Fc1ccc(Cl)cc1C1CCCCN1c1ccnc(Cl)n1 (centres unmarked) [compound 406] | D (D represents a maximal response of < 40%) | < 700 | < 700 | D (D represents a maximal response of < 40%) |  |  | 
Cc1ncccc1C1CCCCN1c1nc(Cl)ncc1F (centres unmarked) [compound 407] | D (D represents a maximal response of < 40%) | < 700 | < 700 | D (D represents a maximal response of < 40%) |  |  | 
Fc1cnc(Cl)nc1N1CCCCC1c1cc(Cl)ccn1 (centres unmarked) [compound 408] | D (D represents a maximal response of < 40%) | < 700 | < 700 | D (D represents a maximal response of < 40%) |  |  | 
Cc1nc(C2CCCCN2c2nc(Cl)ncc2F)no1 (centres unmarked) [compound 409] | D (D represents a maximal response of < 40%) | < 700 | < 700 | D (D represents a maximal response of < 40%) |  |  | 
Fc1cnc(Cl)nc1N1CCCCC1c1ccnc(C(F)(F)F)c1 (centres unmarked) [compound 410] | D (D represents a maximal response of < 40%) | < 700 | < 700 | D (D represents a maximal response of < 40%) |  |  | 
Cc1ccc(C2CCCCN2c2nc(Cl)ncc2F)cn1 (centres unmarked) [compound 411] | D (D represents a maximal response of < 40%) | < 700 | < 700 | D (D represents a maximal response of < 40%) |  |  | 
Fc1ccnc(C2CCCCN2c2nc(Cl)ncc2F)c1 (centres unmarked) [compound 412] | D (D represents a maximal response of < 40%) | < 700 | < 700 | D (D represents a maximal response of < 40%) |  |  | 
Fc1cnc(Cl)nc1N1CCCCC1c1ccc(C(F)(F)F)nc1 (centres unmarked) [compound 413] | D (D represents a maximal response of < 40%) | < 700 | < 700 | D (D represents a maximal response of < 40%) |  |  | 
Cc1cccc(C2CCCCN2c2nc(Cl)ncc2F)n1 (centres unmarked) [compound 414] | D (D represents a maximal response of < 40%) | < 700 | < 700 | D (D represents a maximal response of < 40%) |  |  | 
Fc1ccc(Cl)nc1N1CCCCC1c1ccc(C(F)(F)F)nc1 (centres unmarked) [compound 415] | D (D represents a maximal response of < 40%) | < 700 | < 700 | D (D represents a maximal response of < 40%) |  |  | 
Fc1cnc(Cl)nc1N1CCCCC1c1cc(C(F)(F)F)c2[nH]cnc2c1 (centres unmarked) [compound 417] | D (D represents a maximal response of < 40%) | < 700 | < 700 | D (D represents a maximal response of < 40%) |  |  | 
Fc1cnc(Cl)nc1N1CCCCC1c1ccc2nccn2c1 (centres unmarked) [compound 421] |  | < 700 | < 700 |  |  | D (D represents a maximal response of < 40%) | D (D represents a maximal response of < 40%)
CCCC1(F)CCCN(c2nc(Cl)ncc2F)C1c1cccc(C(F)(F)F)c1 (centres unmarked) [compound 424] |  | > 2100 |  |  | > 2100 | F (F represents a maximal response of > 60%) | D (D represents a maximal response of < 40%)
Fc1ccc(C2CCCCN2c2cccc(Cl)c2)cc1Cl (centres unmarked) [compound 443] |  | > 2100 | > 2100 |  |  | F (F represents a maximal response of > 60%) | D (D represents a maximal response of < 40%)
Fc1ccc(Cl)cc1CN1C2CCC(C2)C1c1cccc(C(F)(F)F)n1 (centres unmarked) [compound 444] |  | > 2100 | > 2100 |  |  | F (F represents a maximal response of > 60%) | D (D represents a maximal response of < 40%)
